Values quoted from earlier work in patent US8268549B2, “Method and assay for determining methylation of GAL3 promoter for early diagnosis of prostate cancer” (University of Maryland, Baltimore, priority 2005, dated 2012).

Test system: galectins

Row | relative binding affinity, times less effective than lactose (Lac) (galectins) | Compound | ligand quality for chimera galectins (chimera galectins)
1 |  | CC(=O)N[C@@H]1[C@@H](O[C@@H]2O[C@H](CO)[C@H](O)[C@H](O)[C@H]2O)[C@@H](O)[C@@H](CO)O[C@@H]1O [T-disaccharide] | good ligand
2 | ~200 times | O=C[C@H](O)[C@@H](O)[C@@H](O)[C@H](O)CO [D-galactose] | 
